Data published in patent US8603532B2, “Nanostructures for drug delivery” (priority 2008, dated 2013).
Like-named read-outs stand apart in the source and are kept apart here.

Experiments:
[1] = 1 h post administration, literature value; cited from earlier work
[2] = tested on: Male Sprague Dawley Rats; experiment: Maximum tolerated dose (MTD) study, intravenous; type: in vivo; settings: for Death: 3 rats; for dose tolerated by the rats / MTD: i.v.; for dose tolerated by the rats: survival; for MTD: 14 days monitoring
Text: The maximum tolerated dose (MTD) of chemotherapeutic agents may be a critical factor for achieving optimal therapeutic benefit. The effectiveness of chemotherapeutic agents is generally proportional to the dose of the agents at their targets; however, the dose may be limited by systemic toxicity. In this non-limiting example, the therapeutic effectiveness of a platinum(IV) prodrug was attempted to be increased by increasing the maximum tolerated dose (MTD) of the prodrug by using a polymeric nanoparticle drug delivery systems. Various doses of cisplatin, Pt(IV)-prodrug (compound 1 from Example 1), Pt—NP (from Example 1), or PLGA-PEG-NP (control, nanoparticles not comprising platinum complexes) were injected intravenously and the MTD was estimated based on the threshold at which all […] survived.
Male Sprague Dawley Rats were used for MTD determination with intravenous administration. All rats treated with plain nanoparticles tolerated these doses. In the Pt—NP group, rats receiving doses up to 40 mg/kg tolerated the dose, but two of three in the 50 and 60-mg/kg groups died. Only the dose of 20 mg/kg free cisplatin or Pt(IV)-prodrug were tolerated by the rats. To further define the MTD, overall toxicity was monitored for 14 days. As a sign of toxicity, the body weights of rats were measured.

[3] = tested on: PSMA+ LNCaP cells; experiment: In vitro cytotoxicity, MTT assay; type: cell-based, human; settings: 72 h
Method: (§1) A series of in vitro cytotoxicity assays were performed to understand the anti-cancer properties of platinum(IV)-encapsulated nanoparticles, using human prostate cancer cells, and directly compared its efficacy to that of free cisplatin. The choice of the cancer cells was based on the presence of PSMA, as mentioned before. […] As shown in this figure, the Pt(IV)encapsulated polymeric nanoparticles containing PSMA aptamers on the surface (Pt—NP-Apt) were highly cytotoxic to the LNCaP cells, which up-regulate PSMA on the surface, giving an IC50 value of 0.03 μM. […] The PSMA^+ aptamer targeted Pt(IV)-encapsulated PLGA-b-PEG nanoparticles (Pt—Np-Apt) were 80 times more toxic in the PSMA LNCaP cells, indicating potential application of these nanoparticles in human prostate cancer.

[4] = tested on: PC3 cells; experiment: In vitro cytotoxicity, MTT assay; type: cell-based, human; settings: 72 h
Method: as §1

[5] = Cyclic voltammetry, Pt(IV)/Pt(II) reduction potential; type: physicochemical
Method: The identity of the platinum species released from the polymeric nanoparticles was determined by ESI-MS. […] The redox potentials were also investigated for reduction of compound 1 at various pH values. […] NPs before reaching the nuclear DNA.

[6] = Blood circulation and excretion studies; type: in vivo; settings: rat, 2 mg/kg i.v., 1 h post administration
Method: Male Sprague Dawley rats were used in this study. Separate groups of animals received i.v. injections of Pt—NP (2 mg/kg) or Pt(IV)-prodrug (2 mg/kg) and were placed in metabolism cages. Blood was collected at predetermined time points in heparinized tubes. Whole organs or representative tissue samples were removed and weighed where necessary. Urine was collected for 24 h. Plasma was obtained from the blood samples by […]. Samples were analyzed for their platinum content using a Perkin Elmer Flameless Atomic Absorption Spectrophotometer.

Substance: [cis-Pt(NH3)2Cl2] [cisplatin, reference compound]
- platinum dose remaining in the systemic circulation [1]: 1.5%
- Death ([2]; 5 mg/kg i.v.): 0
- Death ([2]; 10 mg/kg i.v.): 0
- Death ([2]; 20 mg/kg i.v.): 0
- Death ([2]; 40 mg/kg i.v.): 3
- dose tolerated by the rats [2]: 20 mg/kg
- MTD ([2]; rats): 20 mg/kg
- IC50 [3]: 2400 nM
- IC50 [4]: 180 nM

Substance: c,c,t-[Pt(NH3)2(O2CCH2CH2CH2CH2CH2)2Cl2] [compound 1]
- Death ([2]; 5 mg/kg i.v.): 0
- Death ([2]; 10 mg/kg i.v.): 0
- Death ([2]; 20 mg/kg i.v.): 0
- Death ([2]; 40 mg/kg i.v.): 2
- dose tolerated by the rats [2]: 20 mg/kg
- MTD ([2]; rats): 20 mg/kg
- body weight change ([2]; rats, up to 20 mg/kg, 14 days): did not show any weight loss
- Pt(IV)/Pt(II) couple, irreversible cyclic voltammetric response ([5]; 1:4 DMF-sodium phosphate buffer, pH 6.0): ~−0.243 V vs. NHE
- Pt(IV)/Pt(II) couple, irreversible cyclic voltammetric response ([5]; 1:4 DMF-sodium phosphate buffer, pH 7.4): ~−0.233 V vs. NHE
- Pt(IV)/Pt(II) couple, irreversible cyclic voltammetric response ([5]; MeCN-0.1 M TBAPF6): ~−0.805 V vs. NHE
- platinum dose remaining in the systemic circulation [6]: 15.6%
